Values of other authors as cited in the PKSmart pharmacokinetics tables (Seal et al. 2025).

Key:
[1] = Lombardo, Berellini, Obach 2018, Drug Metab Dispos 46:1466, doi 10.1124/dmd.118.082966; settings: human; for MRT / Vd / clearance / half-life: in vivo, iv; for fraction unbound: plasma
[2] = Lombardo et al. 2013, J Clin Pharmacol 53:178, doi 10.1177/0091270012440282; settings: for Vd / clearance: in vivo, iv; for fraction unbound: plasma

| Compound | MRT [1] [h] | Vd [1] [L/kg] | clearance [1] [mL/min/kg] | half-life [1] [h] | Vd ([2]; dog) [L/kg] | clearance ([2]; dog) [mL/min/kg] | fraction unbound ([2]; dog) | Vd ([2]; rat) [L/kg] | clearance ([2]; rat) [mL/min/kg] | fraction unbound ([2]; rat) | Vd ([2]; monkey) [L/kg] | clearance ([2]; monkey) [mL/min/kg] | fraction unbound ([2]; monkey) | fraction unbound [1] |
| --- | --- | --- | --- | --- | --- | --- | --- | --- | --- | --- | --- | --- | --- | --- |
| CCc1nn(CCCN2CCN(c3cccc(Cl)c3)CC2)c(=O)n1CCOc1ccccc1 | 1.1 | 0.51 | 7.5 | 1.2 | 3.24 | 26 |  |  |  |  |  |  |  |  |
| CCN1CCC[C@H]1CNC(=O)c1c(OC)ccc(Br)c1OC | 6.4 | 0.65 | 1.7 | 5.5 | 1.6 | 4.9 | 0.12 | 4.5 | 170 | 0.74 |  |  |  |  |
| COc1ccc2c3c1O[C@H]1C[C@@H](O)C=C[C@@]31CCN(C)C2 | 6.8 | 2.3 | 5.6 | 5.3 | 2.78 | 12.3 | 0.981 | 5.2 | 31.7 | 0.75 |  |  |  |  |
| C[C@]12CC[C@@H]3c4ccc(O)cc4CC[C@H]3[C@@H]1CC[C@@H]2O | 0.7 | 1.2 | 30 | 1.7 |  |  |  | 5.9 | 69 | 0.053 |  |  |  |  |
| COc1cc(Cc2cnc(N)nc2N)cc(OC)c1OC | 12 | 1.5 |  | 9.6 | 1.74 |  | 0.708 | 2.1 |  | 0.51 |  |  |  |  |
| COc1ccc(C(CN(C)C)C2(O)CCCCC2)cc1 (configuration not stated) | 5.2 | 4.4 | 14 | 5 | 3.3 | 13.5 | 0.593 | 6.6 | 64.5 |  | 3.5 | 41 | 0.708 |  |
| CO[C@]12CC[C@@]3(C[C@@H]1[C@](C)(O)C(C)(C)C)[C@H]1Cc4ccc(O)c5c4[C@@]3(CCN1CC1CC1)[C@H]2O5 |  |  |  | 3.2 |  |  |  | 8.37 | 0.05 |  |  |  |  |  |
| O=C(CCCN1CCC(O)(c2ccc(Cl)cc2)CC1)c1ccc(F)cc1 | 36 | 17 |  | 35 | 37 |  |  | 10.4 |  | 0.24 | 3.7 |  |  |  |
| COc1cc2nc(N3CCN(C(=O)C4COc5ccccc5O4)CC3)nc(N)c2cc1OC (configuration not stated) | 14 | 1.3 |  | 10 | 5 | 13 | 0.0653 | 3 |  | 0.03 |  |  |  |  |
| NC(=O)c1ncn([C@@H]2O[C@H](CO)[C@@H](O)[C@H]2O)n1 | 45 |  | 5.2 | 45 |  |  |  |  | 43 |  |  | 3.7 | 0.497 |  |
| COC(=O)CCc1ccc(OCC(O)CNC(C)C)cc1 (configuration not stated) | 0.07 | 1.2 | 290 | 0.15 | 3.4 | 1500 | 0.62 |  |  | 0.71 |  |  |  | 0.59 |
| CCOc1ccccc1OCCN[C@H](C)Cc1ccc(OC)c(S(N)(=O)=O)c1 | 5.6 | 0.21 | 0.62 | 6.8 | 1.74 | 19.3 | 0.1 | 3.25 | 82.2 | 0.24 |  |  |  |  |
| CN(C)CCCN1c2ccccc2CCc2ccc(Cl)cc21 | 26 | 13 | 8.2 |  | 3.7 | 23.3 | 0.01 |  |  |  |  |  |  |  |
| NC(=O)c1csc([C@@H]2O[C@H](CO)[C@@H](O)[C@H]2O)n1 | 7.6 | 1.1 |  | 5.9 | 0.99 |  | 0.85 |  |  |  | 2 |  | 1 | 0.47 |
| NC(C(=O)O)[C@@H]1CC(Cl)=NO1 (some centres not stated) | 12 | 0.5 | 0.69 | 9.9 | 0.58 | 1.4 |  | 0.74 | 6.4 |  | 0.61 | 2.3 |  |  |
| COCC(=O)O[C@]1(CCN(C)CCCc2nc3ccccc3[nH]2)CCc2cc(F)ccc2[C@@H]1C(C)C | 13 | 3.1 | 4 | 13 | 9.7 | 18.4 |  |  | 94 |  |  |  |  | 0.005 |
| O=C1c2ccccc2S(=O)(=O)N1CCCCNC[C@H]1CCc2ccccc2O1 | 1.6 | 0.21 | 2.2 | 1.2 |  |  |  | 1.48 | 38.3 | 0.054 |  |  |  |  |
| CC(c1ncncc1F)[C@](O)(Cn1cncn1)c1ccc(F)cc1F (some centres not stated) | 4.4 | 2.2 |  | 5.6 | 0.88 |  | 0.49 | 1.78 |  | 0.44 |  |  |  | 0.42 |
| CCN(CC)C(=O)/C(C#N)=C/c1cc(O)c(O)c([N+](=O)[O-])c1 | 0.38 | 0.27 | 12 |  |  |  |  | 0.24 | 10.8 |  |  |  |  |  |
| CC1(C)S[C@@H]2C(NC(=O)C(NC(=O)N3CCN(S(C)(=O)=O)C3=O)c3ccccc3)C(=O)N2C1C(=O)O (some centres not stated) | 0.71 | 0.09 | 2.1 | 1.2 |  |  |  | 0.3 | 50 | 0.65 |  |  |  | 0.7 |
| CN1CCC[C@H]1c1cccnc1 | 2.4 | 2.6 | 18 | 2 | 3.3 | 42 |  | 2.77 | 46.3 |  |  |  |  |  |
| CON=C(C(=O)NC1C(=O)N2C(C(=O)O)=C(COC(C)=O)CS[C@H]12)c1csc(N)n1 (some centres not stated) | 1.2 | 0.19 | 2.7 | 1.2 | 0.5 | 8.13 |  |  |  | 0.59 |  |  |  | 0.6 |
| CC(C)Oc1ccccc1N1CCN(Cc2cccc(C(=O)N3CCCCC3)c2)CC1 | 4.2 | 1.54 | 6.17 | 4.6 |  |  |  | 1.73 | 39.2 | 0.03 |  |  |  |  |
| COC(=O)C1=C(C)NC(C)=C(C(=O)OC)C1c1ccccc1[N+](=O)[O-] |  |  |  | 1.9 | 1.15 |  |  | 0.27 |  | 0.035 |  |  |  |  |
| CN1CCCC(n2nc(Cc3ccc(Cl)cc3)c3ccccc3c2=O)CC1 (configuration not stated) | 27 | 15 | 9 | 22 | 8.1 | 50 | 0.0826 | 1.8 | 58 | 0.1 |  |  |  | 0.17 |
| CN(C(=O)c1c(O)c2ccccc2n(C)c1=O)c1ccccc1 | 43 | 0.21 | 0.082 | 31 |  |  |  | 0.32 | 0.17 |  |  |  |  |  |
| CCC1(c2cccc(O)c2)CCCCN(C)C1 (configuration not stated) | 2 | 3.3 | 28 | 1.7 |  |  |  | 4.4 | 58.4 |  |  |  |  | 0.73 |
| COc1ccc(Cc2nccc3cc(OC)c(OC)cc23)cc1OC | 1.4 | 1 | 11 | 1.8 | 3.01 | 21.8 | 0.1 |  |  | 0.09 |  |  |  |  |
| COc1cc(NCc2ccc3nc(N)nc(N)c3c2C)cc(OC)c1OC | 17 | 0.77 | 0.77 | 17 | 11.7 | 33.2 | 1 | 9.2 | 71.1 |  | 1.56 | 8.5 | 0.1 | 0.05 |
